The values that follow come from BindingDB's records for doi:10.1016/j.ejmech.2017.11.048 (University of New Mexico, 2018).

A word on the EC50: it is the concentration that produces a half-maximal response.

SMILES strings stand for the structures.

This assay addresses T1, Nuclear factor erythroid 2-related factor 2 (Homo sapiens, UniProt Q16236).
T1 sequence (Q16236 whole entry): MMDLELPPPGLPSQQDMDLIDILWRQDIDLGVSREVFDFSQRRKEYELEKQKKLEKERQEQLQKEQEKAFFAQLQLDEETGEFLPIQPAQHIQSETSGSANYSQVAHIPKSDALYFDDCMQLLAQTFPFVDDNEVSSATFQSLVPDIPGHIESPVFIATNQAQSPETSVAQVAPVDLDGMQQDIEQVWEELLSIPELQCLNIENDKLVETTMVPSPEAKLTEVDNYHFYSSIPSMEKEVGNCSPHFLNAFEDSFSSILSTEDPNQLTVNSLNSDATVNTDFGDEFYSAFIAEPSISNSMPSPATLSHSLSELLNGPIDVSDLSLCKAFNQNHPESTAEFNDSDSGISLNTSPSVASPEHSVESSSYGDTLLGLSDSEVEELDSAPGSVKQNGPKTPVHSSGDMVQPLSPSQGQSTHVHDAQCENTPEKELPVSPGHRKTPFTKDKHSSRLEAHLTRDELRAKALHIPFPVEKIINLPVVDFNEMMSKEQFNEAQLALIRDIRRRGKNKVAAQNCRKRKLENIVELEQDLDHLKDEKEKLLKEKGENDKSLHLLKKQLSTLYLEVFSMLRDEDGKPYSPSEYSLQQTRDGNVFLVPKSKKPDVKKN
The assay can be described thus: Activation of Nrf2 (unknown origin) expressed in human HepG2 cells after 5 hrs by ARE-driven luciferase reporter gene assay. For orientation: Reporter assays use an easily measured gene product as a stand-in for the process of interest.
For `Cc1ccc(C(=O)/C=C/c2ccccc2)c(C)c1`, the response was half-maximal at 21.1 µM (EC50).
For `COc1cc(/C=C2\CCC/C(=C\c3cc(OC)cc(OC)c3)C2=O)cc(OC)c1` the value was 5.3 µM; for `COc1cc(/C=C/C(=O)/C=C/c2ccc(O)c(OC)c2)ccc1O` [(1E,4E)-1,5-Bis-(4-hydroxy-3-methoxy-phenyl)-penta-1,4-dien-3-one], 9.9 µM; for `COc1cc(/C=C/C(=O)CC(=O)/C=C/c2ccc(O)c(OC)c2)ccc1O` [CHEBI:3962], 21 µM.
For `COc1cc(OC)c(OC)cc1/C=C/C(=O)/C=C/c1cc(OC)c(OC)cc1OC` [Go-Y021] the value was 1.32 µM; for `O=C(/C=C/c1ccccc1O)/C=C/c1ccccc1O` [US9187397, 20q], 3.3 µM.
